Values quoted from earlier work in US20090196889A1, “CONTROLLED ABSORPTION OF STATINS IN THE INTESTINE” (DEXCEL PHARMA TECHNOLOGIES LTD., priority 2004, published 2009).

Key:
[1] = biological target: T1, HMG-CoA reductase (Homo sapiens, UniProt P04035); details: relative to the beta-hydroxy acid form considered as the drug
T1 sequence (P04035 1-888): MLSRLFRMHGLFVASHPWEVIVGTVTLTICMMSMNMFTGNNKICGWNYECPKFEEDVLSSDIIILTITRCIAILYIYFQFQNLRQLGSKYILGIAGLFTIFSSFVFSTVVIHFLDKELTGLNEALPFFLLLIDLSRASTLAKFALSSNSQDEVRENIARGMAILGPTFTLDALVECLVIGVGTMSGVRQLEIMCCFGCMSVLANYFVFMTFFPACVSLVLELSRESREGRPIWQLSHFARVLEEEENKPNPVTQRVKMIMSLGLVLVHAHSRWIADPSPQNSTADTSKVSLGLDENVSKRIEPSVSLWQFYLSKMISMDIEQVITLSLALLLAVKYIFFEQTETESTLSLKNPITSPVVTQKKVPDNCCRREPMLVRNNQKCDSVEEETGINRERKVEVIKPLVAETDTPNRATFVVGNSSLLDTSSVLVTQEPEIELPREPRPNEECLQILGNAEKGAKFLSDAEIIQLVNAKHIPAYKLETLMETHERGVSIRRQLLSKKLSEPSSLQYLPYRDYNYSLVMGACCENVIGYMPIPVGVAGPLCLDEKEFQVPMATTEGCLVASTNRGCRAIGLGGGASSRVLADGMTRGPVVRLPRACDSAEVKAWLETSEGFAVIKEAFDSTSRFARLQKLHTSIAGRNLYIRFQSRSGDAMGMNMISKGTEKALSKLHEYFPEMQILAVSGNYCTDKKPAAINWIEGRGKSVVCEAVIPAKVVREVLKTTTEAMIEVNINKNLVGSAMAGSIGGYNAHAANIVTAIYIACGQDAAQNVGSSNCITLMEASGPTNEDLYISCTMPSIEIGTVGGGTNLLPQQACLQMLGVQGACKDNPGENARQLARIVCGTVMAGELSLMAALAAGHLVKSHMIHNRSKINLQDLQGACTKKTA

[2] = system: plasma proteins, primarily albumin; details: simvastatin and its active acid forms

Row | Structure (SMILES) | HMG-CoA reductase activity retained [1] | bound to plasma proteins, primarily to albumin [2]
1 | CCC(C)(C)C(=O)OC1CC(C)(O)C=C2C=CC(C)C(CCC3CC(O)CC(=O)O3)C21 (stereo not drawn) [6-beta-hydroxy simvastatin] | ~50% | 
2 | CCC(C)(C)C(=O)OC1CC(CO)C=C2C=CC(C)C(CCC3CC(O)CC(=O)O3)C21 (stereo not drawn) [6-beta-hydroxymethyl] | approximately 40% | 
3 | CCC(C)(C)C(=O)O[C@H]1C[C@@H](C)C=C2C=C[C@H](C)[C@H](CC[C@@H]3C[C@@H](O)CC(=O)O3)[C@H]21 [simvastatin] |  | more than 95%
